How the values were obtained:
[1] = Liquid; for mass density: 298.15 K, 101.33 kPa; for vapor or sublimation pressure: Ebulliometric method (Recirculating still)
[2] = refractive index (Na D-line) (dimensionless); details: 298.15 K; 101.33 kPa; Liquid; Standard Abbe refractometry

CCOCCO [2-ethoxyethan-1-ol]
Details | mass density [kg/m3] | refractive index
[1] | 925.38 | –
[2] | – | 1.4062

[1]
Details | vapor or sublimation pressure [kPa]
345.63 K | 9.97
349.72 K | 11.98
353.3 K | 13.98
356.42 K | 15.98
359.27 K | 17.98
363.08 K | 20.96
365.34 K | 22.97
367.46 K | 24.98
370.33 K | 27.95
373 K | 30.94
375.49 K | 33.97
378.51 K | 37.93
381.26 K | 41.98
383.78 K | 45.88
386.12 K | 49.91
388.87 K | 54.89
391.39 K | 59.83
393.83 K | 64.82
396.01 K | 69.65
398.1 K | 74.57
400.12 K | 79.47
402.11 K | 84.74
403.97 K | 89.84
405.76 K | 94.91
407.95 K | 101.3

CCCOCCC [dipropyl ether]
Details | mass density [kg/m3] | refractive index
[1] | 741.81 | –
[2] | – | 1.3784

Details | vapor or sublimation pressure [kPa]
[1], 363.16 K | 101.3

CCCO [propan-1-ol]
Details | mass density [kg/m3] | refractive index
[1] | 799.62 | –
[2] | – | 1.3836

Details | vapor or sublimation pressure [kPa]
[1], 369.75 K | 101.3

From the NIST ThermoML archive (doi:10.1016/j.fluid.2007.03.030)
